The values below come from paper PMC10747822 (Pharmaceutics, 2023).

A short description of series [1]: human whole blood (K-EDTA). To be noted: room temperature, up to 2 h.
A short description of series [2]: Pooled human plasma (Li-heparin). To be noted: room temperature, up to 2 h.

Take Ac-[D-Leu]LLLRVK-amba: the not cleaved entry in series [1] and in series [2] was “no detectable degradation over at least 2 h” throughout.
